Structures can show the parent of a compound that is named as a salt. Where two headings read alike, the source gives them in different places.
Key:
rat primary hepatocytes [1] = assay: MMP assay in rat primary hepatocytes; conditions: for IC50: Rattus norvegicus, Hepatocyte, read-out: MMP assays IC50 (µM) Rat Hepatocytes
HepG2 cells [2] = assay: cells; conditions: Homo sapiens; for IC50: HepG2, read-out: MMP assays IC50 (µM) HepG2; for Emax: HepG2, read-out: MMP assays efficacy (%) HepG2
HepG2 cells [3] = conditions: cited from earlier work
rat primary hepatocytes [4] = tested on: rat primary hepatocytes
[5] = read-out: MMP assays IC50 (µM) qHTS-HepG2
[6] = read-out: MMP assays IC50 (µM), qHTS-HepG2

Compound	IC50 (rat primary hepatocytes [1])	IC50 (HepG2 cells [2])	Emax (HepG2 cells [2])	MMP assays efficacy (%) qHTS-HepG2 (HepG2 cells [3])	IC50 (HepG2 cells [3]; [5])	MMP assays efficacy (%) Rat Hepatocytes (rat primary hepatocytes [4])	IC50 (HepG2 cells [3]; [6])	MMP assays IC50 (µM) Rat Hepatocytes (rat primary hepatocytes [1])	MMP assays IC50 (µM) qHTS-HepG2 (HepG2 cells [3])
C[C@@]1(c2ccc(Oc3ccccc3)cc2)OC(=O)N(Nc2ccccc2)C1=O (racemic) [Famoxadone]	8.38 ± 6.71 µM	4.47 µM	107%	-104±6%	4.19 ± 1.07 µM	-158±101%	–	–	–
O=[N+]([O-])c1cc(C2CCCCC2)c(O)c([N+](=O)[O-])c1 [Dinex]	1.4 ± 0.6 µM	0.71 µM	86%	-88±10%	0.28 ± 0.34 µM	-96±4%	–	–	–
CSC1=N[C@@](C)(c2ccccc2)C(=O)N1Nc1ccccc1 [Fenamidone]	42.8 ± 10.3 µM	19.9 µM	59%	-72±14%	43.3 ± 17.1 µM	-56±23%	–	–	–
COc1cc(NS(C)(=O)=O)ccc1Nc1c2ccccc2nc2ccccc12 [Amsacrine hydrochloride]	37.6 ± 3.06 µM	56.2 µM	110%	-75±13%	10.3 ± 2.45 µM	-110±40%	–	–	–
CO[C@H]1C[C@@H]2CC[C@@H](C)[C@@](O)(O2)C(=O)C(=O)N2CCCC[C@H]2C(=O)O[C@H]([C@H](C)C[C@@H]2CC[C@@H](O)[C@H](OC)C2)CC(=O)[C@H](C)/C=C(\C)[C@@H](O)[C@@H](OC)C(=O)[C@H](C)C[C@H](C)/C=C/C=C/C=C/1C [Sirolimus]	20.6 ± 1.68 µM	17.3 µM	95%	-95±3%	–	-61±8%	20.1 ± 2.07 µM	–	–
OC1(c2ccc(Cl)c(C(F)(F)F)c2)CCN(CCCC(c2ccc(F)cc2)c2ccc(F)cc2)CC1 [Penfluridol]	23.2 ± 6.57 µM	27.5 µM	68%	-88±15%	–	-64±25%	33.5 µM	–	–
C[C@]12CC[C@H]3C(=CCc4cc(O)ccc43)[C@@H]1CCC2=O [Equilin]	39.1 ± 15.5 µM	31.6 µM	126%	-97±4%	24.3 ± 4.6 µM	-47±10%	–	–	–
CCC/C=C/C=C/C(=O)O[C@H]1/C(=C/C(=O)OC)C[C@H]2C[C@H]([C@@H](C)O)OC(=O)C[C@H](O)C[C@@H]3C[C@H](OC(C)=O)C(C)(C)[C@](O)(C[C@@H]4C/C(=C/C(=O)OC)C[C@H](/C=C/C(C)(C)[C@]1(O)O2)O4)O3 [Bryostatin 1]	0.79 ± 1.07 µM	0.001 µM	92%	-105±21%	0.01 ± 0.01 µM	-46±21%	–	–	–
ClC1=C(Cl)C2(Cl)C3C4CC(C5OC45)C3C1(Cl)C2(Cl)Cl (stereo not drawn) [Endrin]	–	21.8 µM	55%	-75±20%	23.5 ± 7.96 µM	inactive	–	inactive	–
C[C@]12CC[C@@H]3c4ccc(O)cc4C[C@@H](CCCCCCCCC[S+]([O-])CCCC(F)(F)C(F)(F)F)[C@H]3[C@@H]1CC[C@@H]2O (stereo partly drawn) [Fulvestrant]	8.84 ± 12 µM	5.48 µM	94%	-99±7%	–	-48±0%	5.86 ± 0.82 µM	–	–
Clc1ccc(C(c2ccc(Cl)cc2)C(Cl)Cl)cc1 [p,p'-DDD]	42.2 ± 19.8 µM	39.8 µM	108%	-103±18%	–	-37±12%	15.2 ± 8.82 µM	–	–
C[C@@H]1O[C@@H](O[C@H]2C[C@@H](O)[C@]3(CO)[C@H]4[C@H](O)C[C@]5(C)[C@@H](C6=CC(=O)OC6)CC[C@]5(O)[C@@H]4CC[C@]3(O)C2)[C@H](O)[C@H](O)[C@H]1O [Ouabain]	–	0.22 µM	94%	-88±7%	–	inactive	0.18 µM	inactive	–
CO[C@H]1C[C@@H]2CC[C@@H](C)[C@@](O)(O2)C(=O)C(=O)N2CCCC[C@H]2C(=O)O[C@H]([C@H](C)C[C@@H]2CC[C@@H](OCCO)[C@H](OC)C2)CC(=O)[C@H](C)/C=C(\C)[C@@H](O)[C@@H](OC)C(=O)[C@H](C)C[C@H](C)/C=C/C=C/C=C/1C [Everolimus]	13 ± 7.49 µM	27.5 µM	92%	-96±20%	19.9 ± 2.83 µM	-38±9%	–	–	–
O=[N+]([O-])c1ccc2ccc3cccc4ccc1c2c34 [Compound 1-Nitropyrene]	16.9 ± 4.77 µM	6.31 µM	68%	-99±6%	2.01 ± 2.06 µM	-60±24%	–	–	–
CC(C)C(C(=O)OC(C#N)c1cccc(Oc2ccccc2)c1)c1ccc(Cl)cc1 (stereo not drawn) [Fenvalerate]	–	35.5 µM	60%	-69±10%	–	inactive	32.1 µM	inactive	–
Cc1cc(C(C)(C)c2ccc(O)c(C)c2)ccc1O [3,3'-Dimethylbisphenol A]	34.4 ± 4.73 µM	11.2 µM	110%	-118±22%	8.88 ± 3.37 µM	-56±26%	–	–	–

Compound	IC50 (rat primary hepatocytes [1])	IC50 (HepG2 cells [2])	Emax (HepG2 cells [2])	MMP assays efficacy (%) qHTS-HepG2 (HepG2 cells [3])	IC50 (HepG2 cells [3]; [5])	MMP assays efficacy (%) Rat Hepatocytes (rat primary hepatocytes [4])	IC50 (HepG2 cells [3]; [6])	MMP assays IC50 (µM) Rat Hepatocytes (rat primary hepatocytes [1])	MMP assays IC50 (µM) qHTS-HepG2 (HepG2 cells [3])
Nc1ccccc1N [1,2-Phenylenediamine]	17.9 ± 6.5 µM	2.51 µM	87%	-96±16%	3.9 ± 3.61 µM	-41±14%	–	–	–
CC(=O)N1CCN(c2ccc(OCC3COC(Cn4ccnc4)(c4ccc(Cl)cc4Cl)O3)cc2)CC1 (stereo not drawn) [Ketoconazole]	–	5.48 µM	55%	-56±14%	–	inactive	10.8 ± 3.25 µM	inactive	–
CCC(C)(C)c1cc(O)c(C(C)(C)CC)cc1O	34.5 ± 5.88 µM	3.55 µM	101%	-121±19%	6.86 ± 3.17 µM	-87±19%	–	–	–
CC(=O)Oc1ccccc1C(=O)Nc1ncc([N+](=O)[O-])s1 [Nitazoxanide]	6.94 ± 4.36 µM	1.26 µM	89%	-94±10%	–	-94±13%	1.04 ± 0.96 µM	–	–
Oc1cccc2ccccc12 [Compound 1-Naphthol]	–	31.6 µM	107%	-104±5%	31 ± 5.96 µM	inactive	–	inactive	–
CO/N=C(/C1=NOCCO1)c1ccccc1Oc1ncnc(Oc2ccccc2Cl)c1F [Fluoxastrobin]	37.9 ± 19.3 µM	11.2 µM	72%	-81±29%	–	-105±24%	45.8 ± 15 µM	–	–
O=C1OC(c2ccc(O)cc2)(c2ccc(O)cc2)c2ccccc21 [Phenolphthalein]	39.5 ± 16.9 µM	25.1 µM	132%	-103±24%	–	-98±24%	42.8 ± 2.74 µM	–	–
CC(=O)CC(c1ccc([N+](=O)[O-])cc1)c1c(O)c2ccccc2oc1=O (stereo not drawn) [Acenocoumarol]	4.59 ± 1.82 µM	9.32 µM	89%	-96±12%	8.36 ± 1.07 µM	-64±56%	–	–	–
CCc1ccccc1O [Compound 2-Ethylphenol]	–	15.8 µM	72%	inactive	–	inactive	–	inactive	inactive
COc1cc(/C=C/C(=O)CC(=O)/C=C/c2ccc(O)c(OC)c2)ccc1O [Curcumin]	11.6 ± 9.87 µM	2.51 µM	96%	-103±16%	1.31 ± 1.03 µM	-116±37%	–	–	–
O=c1[nH]sc2ccccc12 [1,2-Benzisothiazolin-3-one]	–	17.8 µM	118%	-81±19%	38.6 ± 13.7 µM	inactive	–	inactive	–
Nc1ccc(N)c2ccccc12 [1,4-Naphthalenediamine]	22.7 ± 8.75 µM	2 µM	109%	-88±2%	0.2 ± 0.08 µM	-44±17%	–	–	–
CN(C)c1ccc(C(=C2C=CC(=[N+](C)C)C=C2)c2ccc(N(C)C)cc2)cc1 [Gentian violet]	1.34 ± 0.11 µM	0.35 µM	92%	-92±4%	–	-70±14%	0.08 ± 0.04 µM	–	–
CO[C@H]1[C@@H](O)C[C@H](O[C@H]2[C@@H](O)C[C@H](O[C@H]3[C@@H](O)C[C@H](O[C@H]4CC[C@@]5(C)[C@H](CC[C@@H]6[C@@H]5C[C@@H](O)[C@]5(C)[C@@H](C7=CC(=O)OC7)CC[C@]65O)C4)O[C@@H]3C)O[C@@H]2C)O[C@@H]1C [Methyldigoxin]	–	0.24 µM	99%	-71±5%	–	inactive	0.73 ± 0.09 µM	inactive	–
O=C(NC(=O)c1c(F)cccc1F)Nc1ccc(Cl)c(Oc2ncc(C(F)(F)F)cc2Cl)c1 [Fluazuron]	9.83 ± 13.6 µM	12.3 µM	83%	-66±7%	–	-64±17%	3.96 ± 2.31 µM	–	–
